Consider two substances from patent US6667387B1, “HCV core peptides” (priority 1992, dated 2003).

* marks the point of attachment. Biotin = O=C1N[C@H]2[C@H](CS[C@H]2CCCCC(=O)*)N1

Experiment [1] can be described thus: ELISA with seronegative / negative control sera (specificity). In kind it is binding, human. In outline:
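Specificity readout is OD at 450 nm (HRP goat anti-human Ig, TMB/H2O2, sulfuric acid stop), with ≥0.250 counted positive. Seronegative donor sera (typically 1:100, 1 h, 37° C) were applied to casein-blocked wells coated with peptide directly or via streptavidin capture of biotinylated peptide.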

Experiment [2] deals with antibodies in sera from HCV-seropositive donors. The experiment can be described thus: ELISA with HCV antibody-positive sera (biotinylated peptides on streptavidin- or avidin-coated plates, unbiotinylated peptides coated directly). The class given is binding, human. Particulars: Table 8, Avidin. Summed up: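 Read-out is OD at 450 nm after HRP goat anti-human Ig and TMB development, following 1 h at 37° C. with seropositive or negative sera diluted 1:100 (or 20-fold). Antigen was either unbiotinylated peptide adsorbed on plastic (pH 9.6 carbonate, 2–5 or 3 μg/ml) or biotinylated peptide at 1 μg/ml captured on streptavidin-coated wells, with casein blocking.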

Where [3] appears, read: Table 8, serum 1782 (blood donor), Avidin.
Where [4] appears, read: Table 8, serum 1784 (blood donor), Avidin.
[5] abbreviates: Table 8, serum 1785 (blood donor), Avidin.
The mark [6] stands for this setting: Table 8, serum 1794 (blood donor), Avidin.

Regarding “Bio-Gly-Gly-Gly-Ile-Trp-Gly-Cys-Ser-Gly-Lys-Leu-Ile-Cys-NH2 (Biotin-GGGIWGCSGKLIC-NH2; cysteine pairing not given here) [TM-HIV-1 Bio]”, the “optical density (450 nm)” value is given as 0.005 in experiment [1] (Table 1, serum 180, seronegative donor); 0.000 in experiment [1] (Table 1, serum 194, seronegative donor); 0.000 in experiment [1] (Table 1, serum 195, seronegative donor); 0.001 in experiment [1] (Table 1, serum 204, seronegative donor); 0.000 in experiment [1] (Table 6, serum 1733, seronegative blood donor); 0.000 in experiment [1] (Table 6, serum 1747, seronegative blood donor). Moreover, the “optical density (450 nm)” value in experiment [1] (Table 6, serum 1784, seronegative blood donor) was 0.000; in experiment [1] (setting [3]), 0.052; in experiment [1] (setting [4]) it was 0.044; in experiment [1] (setting [5]), 0.046; in experiment [1] (setting [6]), 0.124; in experiment [2] (serum 8243 (HCV)) it was 0.108. Further, the “optical density (450 nm)” value in experiment [2] (serum 8247 (HCV)) is 0.042; in experiment [2] (serum 8248 (HCV)) it was 0.043; in experiment [2] (serum 8269 (HCV)) it was 0.053; in experiment [2] (serum 8273 (HCV)), 0.053; in experiment [2] (serum 8278 (HCV)) it was 0.046; in experiment [2] (serum 8285 (HCV)), 0.134. Besides, the “optical density (450 nm)” value is listed as 0.045 in experiment [2] (serum 8290 (HCV)) and 0.048 in experiment [2] (serum 8291 (HCV)).

For the substance “Bio-Gly-Gly-Tyr-Asn-Lys-Arg-Lys-Arg-Ile-His-Ile-Gly-Pro-Gly-Arg-Ala-Phe-Tyr-Thr-Thr-Lys-Asn-Ile-Ile-Gly-NH2 (Biotin-GGYNKRKRIHIGPGRAFYTTKNIIG-NH2) [V3-mn Bio]”, the “optical density (450 nm)” value in experiment [1] (Table 2, negative control) was 0.069; in experiment [1] (Table 3, Control, peptide bound to avidin), 0.063; in experiment [1] (Table 3, Control, peptide bound to streptavidin), 0.050; in experiment [1] (setting [3]), 0.059; in experiment [1] (setting [4]), 0.046; in experiment [1] (setting [5]), 0.048. Moreover, the “optical density (450 nm)” value is 0.091 in experiment [1] (setting [6]); 0.114 in experiment [2] (serum 8243 (HCV)); 0.052 in experiment [2] (serum 8247 (HCV)); 0.048 in experiment [2] (serum 8248 (HCV)); 0.056 in experiment [2] (serum 8269 (HCV)); 0.056 in experiment [2] (serum 8273 (HCV)). Moreover, the “optical density (450 nm)” value turned out to be 0.053 in experiment [2] (serum 8278 (HCV)), 0.143 in experiment [2] (serum 8285 (HCV)), 0.050 in experiment [2] (serum 8290 (HCV)) and 0.053 in experiment [2] (serum 8291 (HCV)).
